Measured values from ChEMBL document CHEMBL2074058, “Regulation by dexamethasone of P-glycoprotein expression in cultured rat hepatocytes” (FEBS Lett, 1993).

Columns and labels:
[1] = biological target: Multidrug resistance protein 1a (Rattus norvegicus) (UniProt Q6PSM0); experiment: TP_TRANSPORTER: Northern blot from primary hepatocytes; format: functional, cell-based; settings: Hepatocyte
[2] = biological target: Multidrug resistance protein 1a (Rattus norvegicus) (UniProt Q6PSM0); experiment: TP_TRANSPORTER: Western blot, primary hepatocytes; format: functional, cell-based; settings: Hepatocyte

Multidrug resistance protein 1a (Rattus norvegicus), sequence (Q6PSM0 as listed by the source): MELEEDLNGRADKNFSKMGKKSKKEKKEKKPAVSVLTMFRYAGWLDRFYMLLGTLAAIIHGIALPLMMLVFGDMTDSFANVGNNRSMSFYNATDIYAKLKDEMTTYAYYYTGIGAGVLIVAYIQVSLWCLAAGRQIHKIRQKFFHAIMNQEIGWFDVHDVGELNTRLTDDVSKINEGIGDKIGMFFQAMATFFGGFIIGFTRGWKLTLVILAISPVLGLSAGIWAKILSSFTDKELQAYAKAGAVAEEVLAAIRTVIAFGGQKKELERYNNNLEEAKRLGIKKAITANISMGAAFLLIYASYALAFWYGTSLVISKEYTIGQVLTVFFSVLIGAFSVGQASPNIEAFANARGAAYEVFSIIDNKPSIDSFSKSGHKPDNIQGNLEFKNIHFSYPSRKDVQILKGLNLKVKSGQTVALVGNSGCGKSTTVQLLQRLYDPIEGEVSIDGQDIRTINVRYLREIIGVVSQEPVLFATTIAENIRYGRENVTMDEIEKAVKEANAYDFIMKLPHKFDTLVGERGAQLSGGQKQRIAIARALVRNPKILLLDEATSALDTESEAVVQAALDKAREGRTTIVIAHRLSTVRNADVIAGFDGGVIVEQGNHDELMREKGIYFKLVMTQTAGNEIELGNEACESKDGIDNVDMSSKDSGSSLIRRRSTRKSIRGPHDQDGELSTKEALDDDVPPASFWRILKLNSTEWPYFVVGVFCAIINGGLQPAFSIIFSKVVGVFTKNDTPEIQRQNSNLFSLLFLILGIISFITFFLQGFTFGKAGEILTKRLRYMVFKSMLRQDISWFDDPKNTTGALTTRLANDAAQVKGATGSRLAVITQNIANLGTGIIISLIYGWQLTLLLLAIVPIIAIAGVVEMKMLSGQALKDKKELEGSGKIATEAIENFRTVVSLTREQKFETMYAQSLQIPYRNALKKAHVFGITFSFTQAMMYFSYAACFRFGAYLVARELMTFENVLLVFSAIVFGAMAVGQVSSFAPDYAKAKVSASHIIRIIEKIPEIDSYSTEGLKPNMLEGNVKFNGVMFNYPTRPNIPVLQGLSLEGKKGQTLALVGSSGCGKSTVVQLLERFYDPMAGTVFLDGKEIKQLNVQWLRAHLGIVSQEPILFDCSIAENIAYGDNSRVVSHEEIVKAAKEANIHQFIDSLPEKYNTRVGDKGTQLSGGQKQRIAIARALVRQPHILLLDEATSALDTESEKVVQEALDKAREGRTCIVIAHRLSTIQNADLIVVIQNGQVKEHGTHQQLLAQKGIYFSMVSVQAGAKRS

Activity [1]: inducer [Decrease]
Activity [2]: inducer [Decrease]
SMILES: C[C@@H]1C[C@H]2[C@@H]3CCC4=CC(=O)C=C[C@]4(C)[C@@]3(F)[C@@H](O)C[C@]2(C)[C@@]1(O)C(=O)CO
